Assay results: PMC3050433, “The effects of maribavir on the autophosphorylation of ganciclovir resistant mutants of the cytomegalovirus UL97 protein” (Herpesviridae, 2010)
Changes are numbered by the printed parent chain. “Also recorded” adds a separate entry of the source.

Experiments:
Conditions in all cases: wild type normalised to 100%
UL97 D456A = biological target: T1, UL97 D456A (Human cytomegalovirus, UniProt Q68101, D456A); test: GCV phosphorylation in baculovirus-infected Sf21 insect cells, D456A; assay type: cell-based
T1 construct: PCR reaction to generate the full length UL97; honey bee melittin secretion signal (N); made in house; host or cells: Sf21 insect cells, recombinant baculovirus (pMelBac C)
T1 sequence (Q68101 1-707 D456A): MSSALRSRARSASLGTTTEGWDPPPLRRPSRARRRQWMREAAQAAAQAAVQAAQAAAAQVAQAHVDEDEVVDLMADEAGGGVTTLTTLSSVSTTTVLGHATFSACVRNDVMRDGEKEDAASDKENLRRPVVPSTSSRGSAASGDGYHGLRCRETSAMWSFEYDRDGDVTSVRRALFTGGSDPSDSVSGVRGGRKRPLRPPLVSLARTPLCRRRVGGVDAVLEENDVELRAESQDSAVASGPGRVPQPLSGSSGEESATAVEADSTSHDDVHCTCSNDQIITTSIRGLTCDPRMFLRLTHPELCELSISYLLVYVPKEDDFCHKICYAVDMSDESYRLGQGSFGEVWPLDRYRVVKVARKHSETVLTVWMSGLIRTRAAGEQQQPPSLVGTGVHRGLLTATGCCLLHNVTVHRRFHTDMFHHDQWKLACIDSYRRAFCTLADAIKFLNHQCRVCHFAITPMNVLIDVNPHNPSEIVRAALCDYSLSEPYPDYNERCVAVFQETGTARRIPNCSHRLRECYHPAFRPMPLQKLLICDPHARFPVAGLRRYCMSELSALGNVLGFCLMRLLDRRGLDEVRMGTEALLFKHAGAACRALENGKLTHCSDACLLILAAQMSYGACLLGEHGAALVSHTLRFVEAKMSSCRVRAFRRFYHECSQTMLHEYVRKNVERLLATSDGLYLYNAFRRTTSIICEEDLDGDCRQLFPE
Method: (§1) Sf21 insect cells were infected with wild type or mutant UL97 recombinant baculoviruses at an m.o.i. of 10. After 48 h incubation at 28°C, the culture medium was replaced with fresh medium containing 1.0 mM GCV and [^3H] GCV (0.55 Mbq, Moravek Radiochemicals, California, USA) After a further 24 hours of incubation, nucleotides were harvested by acid hydrolysis (0.5 M perchloric acid), neutralisation to pH 7.5 (2.5 M KOH, 1.5 M KH2PO4) and centrifugation (13000 × g). 50 μl aliquots of supernatant were spotted onto 20 mm diameter DEAE-coated DE81 chromatographic paper discs and the monophosphorylated GCV allowed to bind. The discs were washed twice in 3 ml 10 mM ammonium acetate for 10 minutes and twice in 95% ethanol for 10 minutes. After drying 5 ml of sigmafluor was added (Sigma Chemicals, Dorset, UK) and the radioactivity determined by liquid scintillation counting.

UL97 K355Q = biological target: T2, UL97 K355Q (Human cytomegalovirus, UniProt Q68101, K355Q); test: GCV phosphorylation in baculovirus-infected Sf21 insect cells, K355Q; assay type: cell-based
T2 construct: PCR reaction to generate the full length UL97; honey bee melittin secretion signal (N); expressed in transfected cells; host or cells: Sf21 insect cells infected with recombinant baculovirus
T2 sequence (Q68101 1-707 K355Q): T1 sequence (Q68101 1-707 D456A) with K355Q, A456D
Method: as §1

UL97 N461G = test: GCV phosphorylation in baculovirus-infected Sf21 insect cells, N461G; assay type: cell-based, human cytomegalovirus
Method: as §1

With `Nc1nc(O)c2ncn(COC(CO)CO)c2n1` [GCV, ganciclovir] the “GCV phosphorylation relative to wild type UL97” value (UL97 D456A) was “no effect on GCV phosphorylation”, the “GCV phosphorylation relative to wild type UL97” value (UL97 K355Q) was “unable to phosphorylate GCV; also recorded: complete loss of GCV kinase activity” and the “GCV phosphorylation relative to wild type UL97” value (UL97 N461G) was “complete loss of GCV kinase activity”.
